Several values for one entry are separate records, joined by “and”; a condition that tells them apart may be missing. Equal values may be shown once. Inconclusive results and toxic doses are left out. How the source made its calls: active means survival T/C of 150% or more; inactive means T/C below 125% in these data.
Test system: BDF1 mice, B16 melanoma ip, median survival T/C
Assay: NCI In Vivo Anticancer Drug Screen. Data for tumor model B16 Melanoma (intraperitoneal) in B6D2F1 (BDF1) mice
Details: endpoint: median survival time, higher = longer survival
Summary of the method: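 Values are ratios of treated (T) to vehicle-control (C) measurements of survival or tumor size in tumor-bearing mice.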

[1] = dose: 12.5 mg/kg/injection, schedule: Q01DX009 (ip), vehicle: saline with Tween-80
[2] = dose: 12.5 mg/kg/injection, schedule: Q04DX003 (ip), vehicle: saline with Tween-80
[3] = dose: 25.0 mg/kg/injection, schedule: Q01DX009 (ip), vehicle: saline with Tween-80
[4] = dose: 25.0 mg/kg/injection, schedule: Q04DX003 (ip), vehicle: saline with Tween-80
[5] = dose: 50.0 mg/kg/injection, schedule: Q01DX009 (ip), vehicle: saline with Tween-80
[6] = dose: 100.0 mg/kg/injection, schedule: Q01DX009 (ip), vehicle: Klucel (hydroxypropylcellulose) (HPC)
[7] = dose: 200.0 mg/kg/injection, schedule: Q01DX009 (ip), vehicle: Klucel (hydroxypropylcellulose) (HPC)
[8] = dose: 400.0 mg/kg/injection, schedule: Q01DX009 (ip), vehicle: Klucel (hydroxypropylcellulose) (HPC)
[9] = dose: 12.5 mg/kg/injection, schedule: Q01DX009 (ip), vehicle: Klucel (hydroxypropylcellulose) (HPC)
[10] = dose: 25.0 mg/kg/injection, schedule: Q01DX009 (ip), vehicle: Klucel (hydroxypropylcellulose) (HPC)
[11] = dose: 50.0 mg/kg/injection, schedule: Q01DX009 (ip), vehicle: Klucel (hydroxypropylcellulose) (HPC)
[12] = dose: 100.0 mg/kg/injection, schedule: Q04DX003 (ip), vehicle: Klucel (hydroxypropylcellulose) (HPC)
[13] = dose: 200.0 mg/kg/injection, schedule: Q04DX003 (ip), vehicle: Klucel (hydroxypropylcellulose) (HPC)
[14] = dose: 400.0 mg/kg/injection, schedule: Q04DX003 (ip), vehicle: Klucel (hydroxypropylcellulose) (HPC)
[15] = dose: 100.0 mg/kg/injection, schedule: Q01DX009 (ip), vehicle: saline with Tween-80

Measured: T/C

CC(C)C(=O)OCC1OC(n2cnc3c(=S)nc(N)[nH]c32)C(OC(=O)C(C)C)C1OC(=O)C(C)C (configuration not stated)
inactive: dose: 3.13 mg/kg/injection, schedule: Q01DX009 (ip), vehicle: saline with Tween-80 114 % of control | dose: 6.25 mg/kg/injection, schedule: Q01DX009 (ip), vehicle: saline with Tween-80 108 % of control | [1] 110 % of control

O=[N+]([O-])c1ccccc1O
inactive: [1] 97 % of control | [2] 94 % of control | [3] 92 % of control | [4] 91 % of control | [5] 100 % of control | dose: 50.0 mg/kg/injection, schedule: Q04DX003 (ip), vehicle: saline with Tween-80 100 % of control

C=C1C(=O)O[C@H]2/C=C(/C)C3=CC(=O)[C@@](C)(C[C@@H](OC(=O)/C(C)=C\C)C12)O3 (some centres not stated)
inactive: dose: 0.75 mg/kg/injection, schedule: Q01DX009 (ip), vehicle: Klucel (hydroxypropylcellulose) (HPC) 98 % of control | dose: 1.5 mg/kg/injection, schedule: Q01DX009 (ip), vehicle: Klucel (hydroxypropylcellulose) (HPC) 93 % of control | dose: 3.0 mg/kg/injection, schedule: Q01DX009 (ip), vehicle: Klucel (hydroxypropylcellulose) (HPC) 88 % of control | dose: 6.0 mg/kg/injection, schedule: Q01DX009 (ip), vehicle: Klucel (hydroxypropylcellulose) (HPC) 91 % of control | dose: 12.0 mg/kg/injection, schedule: Q01DX009 (ip), vehicle: Klucel (hydroxypropylcellulose) (HPC) 90 % of control

O=[N+]([O-])c1ccc(N2CCCC2)c([N+](=O)[O-])c1
inactive: [6] 93 % of control | [7] 100 % of control | [8] 100 % of control

Oc1ccc(/C=N\Nc2ccccn2)c(O)c1
inactive: [9] 90 % of control | [10] 102 % of control | [11] 98 % of control | [6] 115 % of control | [7] 124 % of control

CCCCCCCCCCCCCCCC(=O)NNC(C)C
inactive: [10] 96 % of control | [11] 90 % of control | [6] 86 % of control

O=C(/C=C/C(=O)Oc1c(Cl)cc(Cl)cc1Cl)Oc1c(Cl)cc(Cl)cc1Cl
inactive: [12] 95 % of control | [13] 92 % of control | [14] 95 % of control

CCCCN(CCCC)/N=C\C1=C2NC(=O)/C(C)=C\C=C/C(OC)C(OC(N)=O)/C(C)=C/C(C)C(O)C(OC)CC(C)CC(=C(OC)C1=O)C2=O (configuration not stated)
inactive: dose: 12.5 mg/kg/injection, schedule: Q01DX005 (ip), vehicle: other 103 % of control | dose: 25.0 mg/kg/injection, schedule: Q01DX005 (ip), vehicle: other 94 % of control | dose: 50.0 mg/kg/injection, schedule: Q01DX005 (ip), vehicle: other 90 % of control | dose: 100.0 mg/kg/injection, schedule: Q01DX005 (ip), vehicle: other 95 % of control | dose: 200.0 mg/kg/injection, schedule: Q01DX005 (ip), vehicle: other 93 % of control

NC(N)=NC(N)=Nc1ccc(S(=O)(=O)O)cc1
inactive: [15] 94 % of control | dose: 200.0 mg/kg/injection, schedule: Q01DX009 (ip), vehicle: saline with Tween-80 104 % of control | dose: 400.0 mg/kg/injection, schedule: Q01DX009 (ip), vehicle: saline with Tween-80 98 % of control

CCS(=O)(=O)OCCCl
inactive: [3] 104 % of control | [5] 100 % of control | [15] 103 % of control

C[n+]1ccc(Nc2ccc(NC(=O)c3ccc(Nc4cc[n+](C)c5ccc([N+](=O)[O-])cc45)cc3[N+](=O)[O-])cc2)cc1
inactive: [1] 95 % of control | [3] 100 % of control

CN(/N=N/c1nc[nH]c1C(N)=O)C1CCCCC1
inactive: dose: 50.0 mg/kg/injection, schedule: Q01DX009 (ip), vehicle: carboxymethylcellulose (CMC) 123 % of control

CCCCCCCC/C=C\CCCCCCCCN1CC(C(=O)[O][Pb]([CH2]C)([CH2]C)[CH2]C)CC1=O (configuration not stated)
inactive: dose: 0.75 mg/kg/injection, schedule: Q01DX009 (ip), vehicle: saline with Tween-80 107 % of control | dose: 1.5 mg/kg/injection, schedule: Q01DX009 (ip), vehicle: saline with Tween-80 106 % of control | dose: 3.0 mg/kg/injection, schedule: Q01DX009 (ip), vehicle: saline with Tween-80 102 % of control | dose: 6.0 mg/kg/injection, schedule: Q01DX009 (ip), vehicle: saline with Tween-80 107 % of control

CC(C)N(C(=O)c1ccccc1Cl)c1ccccc1
inactive: [10] 93 % of control | [6] 106 % of control

Cc1cc(OC(=O)Nc2ccccc2Cl)ccc1[N+](=O)[O-]
inactive: [12] 96 % of control | [13] 96 % of control | [14] 93 % of control

O=S(=O)(O)O.[Ga]
inactive: dose: 12.5 mg/kg/injection, schedule: Q01DX009 (ip), vehicle: saline 101 % of control | dose: 25.0 mg/kg/injection, schedule: Q01DX009 (ip), vehicle: saline 94 % of control | dose: 50.0 mg/kg/injection, schedule: Q01DX009 (ip), vehicle: saline 91 % of control

C=CC=O
inactive: dose: 0.45 mg/kg/injection, schedule: Q01DX009 (ip), vehicle: saline 95 % of control | dose: 0.9 mg/kg/injection, schedule: Q01DX009 (ip), vehicle: saline 88 % of control | dose: 1.8 mg/kg/injection, schedule: Q01DX009 (ip), vehicle: saline 90 % of control

Cc1c(Cl)cc(Cl)c(N)c1Cl
inactive: dose: 100.0 mg/kg/injection, schedule: Q04DX003 (ip), vehicle: saline with Tween-80 86 % of control | dose: 200.0 mg/kg/injection, schedule: Q04DX003 (ip), vehicle: saline with Tween-80 93 % of control | dose: 400.0 mg/kg/injection, schedule: Q04DX003 (ip), vehicle: saline with Tween-80 90 % of control

COc1cc2ccc(Cc3nccc4cc(OC)c(OC)cc34)cc2cc1OC
inactive: [6] 93 % of control | [7] 93 % of control

CCCCCCCCCCCCCCOC(=O)Cl
inactive: [11] 90 % of control | [6] 92 % of control | [7] 96 % of control | [8] 91 % of control

CC(C)(C)NC/C(=C\c1ccccc1)C(=O)c1ccccc1
inactive: dose: 6.25 mg/kg/injection, schedule: Q04DX003 (ip), vehicle: saline with Tween-80 100 % of control | [9] 96 % of control | [2] 98 % of control | [10] 96 % of control | [4] 97 % of control and 102 % of control

CN(C)N=Nc1ccnc2c(Br)cccc12
inactive: dose: 14.4 mg/kg/injection, schedule: Q01DX009 (ip), vehicle: DMSO 90 % of control | dose: 24.0 mg/kg/injection, schedule: Q01DX009 (ip), vehicle: DMSO 97 % of control | dose: 40.0 mg/kg/injection, schedule: Q01DX009 (ip), vehicle: DMSO 90 % of control | dose: 66.7 mg/kg/injection, schedule: Q01DX009 (ip), vehicle: DMSO 101 % of control

CC1=CC(=O)C=CC1=Nc1ccc(N(C)C)cc1
inactive: [3] 91 % of control | [5] 90 % of control

COc1cc2c(cc1OC)C(CN)C2 (configuration not stated)
inactive: [11] 94 % of control | [6] 97 % of control

[I][Hg][CH2]C1OCCOC1[CH2][Hg][I] (configuration not stated)
inactive: dose: 6.25 mg/kg/injection, schedule: Q01DX009 (ip), vehicle: Klucel (hydroxypropylcellulose) (HPC) 100 % of control | [9] 101 % of control | [10] 106 % of control | [11] 107 % of control | [6] 105 % of control | [7] 95 % of control

O=c1c2cccc3cccc(c32)c2nc3ccccc3n12
inactive: dose: 2.5 mg/kg/injection, schedule: Q01DX009 (ip), vehicle: saline with Tween-80 102 % of control | dose: 5.0 mg/kg/injection, schedule: Q01DX009 (ip), vehicle: saline with Tween-80 114 % of control

Reference: PubChem BioAssay AID192 (DTP/NCI, 2004)
